Measured values as given in US8822449B2, “Substituted aminoindanes and analogs thereof, and the pharmaceutical use thereof” (Sanofi, priority 2008, dated 2014).
Like-named read-outs stand apart in the source and are kept apart here.

Biological target: T1, sodium-proton exchanger of subtype 3 (NHE3) (Homo sapiens, UniProt P48764)
T1 construct: expressed in transfected cells
T1 sequence (P48764 26-834): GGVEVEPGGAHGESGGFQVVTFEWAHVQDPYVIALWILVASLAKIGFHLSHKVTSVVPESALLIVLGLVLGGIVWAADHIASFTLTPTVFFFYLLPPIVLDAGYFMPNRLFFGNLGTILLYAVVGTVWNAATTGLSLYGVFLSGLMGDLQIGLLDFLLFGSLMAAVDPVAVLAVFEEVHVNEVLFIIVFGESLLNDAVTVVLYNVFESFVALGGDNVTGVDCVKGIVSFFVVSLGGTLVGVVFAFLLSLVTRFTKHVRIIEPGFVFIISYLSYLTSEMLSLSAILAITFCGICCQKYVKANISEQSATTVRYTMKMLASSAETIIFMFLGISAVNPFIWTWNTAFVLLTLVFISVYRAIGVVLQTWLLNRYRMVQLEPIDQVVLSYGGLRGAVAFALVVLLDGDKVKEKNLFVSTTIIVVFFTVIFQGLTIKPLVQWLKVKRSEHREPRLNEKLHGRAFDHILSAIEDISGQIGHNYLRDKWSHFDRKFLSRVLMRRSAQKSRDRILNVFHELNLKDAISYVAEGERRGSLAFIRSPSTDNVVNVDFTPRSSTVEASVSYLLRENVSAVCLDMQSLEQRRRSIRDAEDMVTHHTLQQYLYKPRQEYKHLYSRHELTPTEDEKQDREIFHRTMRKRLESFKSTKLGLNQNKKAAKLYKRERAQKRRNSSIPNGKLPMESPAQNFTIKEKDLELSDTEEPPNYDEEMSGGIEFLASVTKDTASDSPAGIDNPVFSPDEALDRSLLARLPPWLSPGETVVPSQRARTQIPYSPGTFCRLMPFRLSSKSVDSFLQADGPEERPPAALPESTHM
Experiment: Recovery of intracellular pH (pHi) after acidification in LAP1 cells stably expressing NHE3 (BCECF fluorescence, FLIPR)
Type: cell-based
Conditions: LAP1 cells stably expressing NHE3, pH recovery after acidification, range 1 is % inhibition at 10 μM

[1] = read-out: Activity range (inhibitory effect on NHE3)

Row | IC50 [1] [nM] | SMILES | other results
1 | 1000 to 10000 | CCOC(=O)c1ncoc1-c1ccc(O[C@H]2c3ccccc3CC[C@@H]2N2CCC[C@@H](N)C2)cc1 (racemic) [Example 583, 5-{4-[rac-trans-(1,2)-2-((R)-3-aminopiperidin-1-yl)-1,2,3,4-tetrahydronaphthalen-1-yloxy]phenyl}oxazole-4-carboxylic acid ethyl ester] | 
2 | < 1000 | CS(=O)(=O)c1ccccc1O[C@H]1c2cc(Cl)cc(Cl)c2C[C@@H]1N1CCC[C@@H](N)C1 [Example 25, (R)-1-[(1S,2S)-4,6-dichloro-1-(2-methanesulfonylphenoxy)indan-2-yl]piperidin-3-ylamine] | 
3 | < 1000 | CN1CC(=O)N(c2ccc(O[C@H]3c4cc(Cl)cc(Cl)c4C[C@@H]3N3CC[C@@H](O)C3)c(Cl)c2)C1=O [Example 422, 3-{3-chloro-4-[(1S,2S)-4,6-dichloro-2-((R)-3-hydroxypyrrolidin-1-yl)indan-1-yloxy]phenyl}-1-methylimidazolidine-2,4-dione] | 
4 | < 1000 | COCCN1CCCN([C@H]2Cc3c(Cl)cc(Cl)cc3[C@@H]2Oc2ccc(S(C)(=O)=O)cc2)CC1 [Example 304, 1-[trans-(1S,2S)-4,6-dichloro-1-(4-methanesulfonylphenoxy)indan-2-yl]-4-(2-methoxyethyl)-[1,4]diazepane] | 
5 | 1000 to 10000 | CN(C)C(=O)Cc1ccc(O[C@H]2c3ccccc3C[C@@H]2N2CCCC2)cc1 (racemic) [Example 634, N,N-dimethyl-2-[4-(rac-trans-(1,2)-2-pyrrolidin-1-ylindan-1-yloxy)phenyl]acetamide] | 
6 |  | Fc1ccc(O[C@H]2c3ccccc3CC[C@@H]2N2CCOCC2)c(-c2ccno2)c1 (racemic) [Example 507, 4-[rac-trans-(1,2)-1-(4-fluoro-2-isoxazol-5-ylphenoxy)-1,2,3,4-tetrahydronaphthalen-2-yl]morpholine] | inhibition at 10 µM [1]: 20 to 50%
7 |  | CS(=O)(=O)c1ccc(O[C@H]2c3ccccc3CC[C@@H]2N2CCOCC2)cc1 (racemic) [Example 508, 4-[rac-trans-(1,2)-1-(4-methanesulfonylphenoxy)-1,2,3,4-tetrahydronaphthalen-2-yl]morpholine] | inhibition at 10 µM [1]: 20 to 50%
8 | < 1000 | CS(=O)(=O)c1ccc(OC2c3ccccc3CC2N2CCC[C@@H](N)C2)c(Cl)c1 (mixture of isomers) [Example 37, (R)-1-[rac-trans-(1,2)-1-(2-chloro-4-methanesulfonylphenoxy)indan-2-yl]piperidin-3-ylamine] | 
9 |  | N[C@H]1CCCN([C@H]2CCc3ccccc3[C@@H]2Oc2ccc(C(F)(F)F)cc2)C1 (racemic) [Example 186, (S)-1-[rac-trans-(1,2)-1-(4-trifluoromethylphenoxy)-1,2,3,4-tetrahydronaphthalen-2-yl]piperidin-3-ylamine] | inhibition at 10 µM [1]: 20 to 50%
10 | 1000 to 10000 | O=C1CCCN1c1cccc(O[C@H]2c3cc(Cl)cc(Cl)c3C[C@@H]2N2CC[C@@H](O)C2)c1 [Example 315, 1-{3-[(1S,2S)-4,6-dichloro-2-((R)-3-hydroxypyrrolidin-1-yl)indan-1-yloxy]phenyl}pyrrolidin-2-one] | 
11 |  | CN(C)S(=O)(=O)c1ccc(O[C@H]2c3ccccc3C[C@@H]2N2CCCC2)c(Cl)c1 (racemic) [Example 447, 3-chloro-N,N-dimethyl-4-(rac-trans-(1,2)-2-pyrrolidin-1-ylindan-1-yloxy)benzenesulfonamide] | IC50 (Activity range (inhibitory effect on NHE3)): < 1000 nM
12 | 1000 to 10000 | CC(=O)Nc1cccc(OC2c3ccccc3CC2N2CC[C@@H](O)C2)c1 (mixture of isomers) [Example 681, N-{3-[rac-trans-(1,2)-2-((R)-3-hydroxypyrrolidin-1-yl)indan-1-yloxy]phenyl}acetamide] | 
13 | < 1000 | N[C@@H]1CCCN([C@H]2Cc3c(Cl)cc(Cl)cc3[C@@H]2Oc2ccc(F)cc2-c2cc[nH]n2)C1 [Example 113, (R)-1-{(1S,2S)-4,6-dichloro-1-[4-fluoro-2-(1H-pyrazol-3-yl)phenoxy]indan-2-yl}piperidin-3-ylamine] | 
14 | 1000 to 10000 | CC(C)(C)N[C@H]1Cc2ccccc2[C@@H]1Oc1ccc(S(C)(=O)=O)cc1 (racemic) [Example 701, tert-butyl-[1-(4-methanesulfonylphenoxy)indan-2-yl]amine] | 
